ChEMBL document CHEMBL1909294, “Translating clinical findings into knowledge in drug safety evaluation--drug induced liver injury prediction system (DILIps)” (PLoS Comput Biol, 2011)

Tests used:
Hepatotoxicity [1] = system: Hepatotoxicity;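 for HepSE bilirubinemia: bilirubinemia hepatic side effect score drawn from the DILIps training data, a prediction system for drug-induced liver injury; call rule not given here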;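 for HepSE cholecystitis: Cholecystitis-related hepatic side effect score drawn from the DILIps (drug-induced liver injury prediction) training data set; call rule not given here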;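 for HepSE cholelithiasis: hepatic side effect score for cholelithiasis, drawn from the DILIps training data for predicting drug-induced liver injury; call rule not given here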;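 for HepSE cirrhosis: cirrhosis hepatic side effect score taken from the DILIps (drug-induced liver injury prediction) training set; call rule not given here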;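 for HepSE elevated liver function tests: hepatic side effect score for raised liver function tests, as recorded in the DILIps training set used for predicting drug-induced liver injury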; for HepSE hepatic failure: call rule not given here;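 for HepSE hepatomegaly: hepatic side effect score for hepatomegaly, taken from the training set of the DILIps drug-induced liver injury prediction system; call rule not given here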
Hepatotoxicity [2] = system: Hepatotoxicity; remark: listed apart in the source;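 for HepSE bilirubinemia: bilirubinemia hepatic side effect score drawn from the DILIps training data, a prediction system for drug-induced liver injury; call rule not given here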;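 for HepSE cholecystitis: Cholecystitis-related hepatic side effect score drawn from the DILIps (drug-induced liver injury prediction) training data set; call rule not given here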;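 for HepSE cholelithiasis: hepatic side effect score for cholelithiasis, drawn from the DILIps training data for predicting drug-induced liver injury; call rule not given here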;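 for HepSE cirrhosis: cirrhosis hepatic side effect score taken from the DILIps (drug-induced liver injury prediction) training set; call rule not given here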;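 for HepSE elevated liver function tests: hepatic side effect score for raised liver function tests, as recorded in the DILIps training set used for predicting drug-induced liver injury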; for HepSE hepatic failure: call rule not given here
Hepatotoxicity [3] = system: Hepatotoxicity; remark: listed apart in the source;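 for HepSE bilirubinemia: bilirubinemia hepatic side effect score drawn from the DILIps training data, a prediction system for drug-induced liver injury; call rule not given here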;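 for HepSE cholecystitis: Cholecystitis-related hepatic side effect score drawn from the DILIps (drug-induced liver injury prediction) training data set; call rule not given here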;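 for HepSE cholelithiasis: hepatic side effect score for cholelithiasis, drawn from the DILIps training data for predicting drug-induced liver injury; call rule not given here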;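 for HepSE cirrhosis: cirrhosis hepatic side effect score taken from the DILIps (drug-induced liver injury prediction) training set; call rule not given here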;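 for HepSE elevated liver function tests: hepatic side effect score for raised liver function tests, as recorded in the DILIps training set used for predicting drug-induced liver injury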; for HepSE hepatic failure: call rule not given here
Hepatotoxicity [4] = system: Hepatotoxicity; remark: listed apart in the source;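 for HepSE bilirubinemia: bilirubinemia hepatic side effect score drawn from the DILIps training data, a prediction system for drug-induced liver injury; call rule not given here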;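 for HepSE cholecystitis: Cholecystitis-related hepatic side effect score drawn from the DILIps (drug-induced liver injury prediction) training data set; call rule not given here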;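 for HepSE cholelithiasis: hepatic side effect score for cholelithiasis, drawn from the DILIps training data for predicting drug-induced liver injury; call rule not given here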;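 for HepSE cirrhosis: cirrhosis hepatic side effect score taken from the DILIps (drug-induced liver injury prediction) training set; call rule not given here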;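 for HepSE elevated liver function tests: hepatic side effect score for raised liver function tests, as recorded in the DILIps training set used for predicting drug-induced liver injury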; for HepSE hepatic failure: call rule not given here
Hepatotoxicity [5] = system: Hepatotoxicity; remark: listed apart in the source; for HepSE hepatic failure: call rule not given here
Hepatotoxicity [6] = system: Hepatotoxicity; remark: listed apart in the source; for HepSE hepatic failure: call rule not given here
Hepatotoxicity [7] = system: Hepatotoxicity; remark: listed apart in the source
Hepatotoxicity [8] = system: Hepatotoxicity; remark: listed apart in the source
Hepatotoxicity [9] = system: Hepatotoxicity; remark: listed apart in the source
Hepatotoxicity [10] = system: Hepatotoxicity; remark: listed apart in the source
Hepatotoxicity [11] = system: Hepatotoxicity; remark: listed apart in the source
Hepatotoxicity [12] = system: Hepatotoxicity; remark: listed apart in the source
Hepatotoxicity [13] = system: Hepatotoxicity; remark: listed apart in the source
Hepatotoxicity [14] = system: Hepatotoxicity; remark: listed apart in the source

Structure (SMILES)	HepSE_bilirubinemia (Hepatotoxicity [1])	HepSE_cholecystitis (Hepatotoxicity [2])	HepSE_cholelithiasis (Hepatotoxicity [3])	HepSE_cirrhosis (Hepatotoxicity [4])	HepSE_elevated liver function tests (Hepatotoxicity [5])	HepSE_hepatic failure (Hepatotoxicity [6])	HepSE_hepatic necrosis (Hepatotoxicity [7])	HepSE_hepatitis (Hepatotoxicity [8])	HepSE_hepatomegaly (Hepatotoxicity [9])	HepSE_jaundice (Hepatotoxicity [10])	HepSE_liver disease (Hepatotoxicity [11])	HepSE_liver fatty (Hepatotoxicity [12])	HepSE_liver function tests abnormal (Hepatotoxicity [13])	HepSE_Combined Scores (Hepatotoxicity [14])
CCCCN1CCCCC1C(=O)Nc1c(C)cccc1C (configuration not stated) [BUPIVACAINE]	0	0	0	0	0	0	0	0	0	0	1	0	0	1
CO[C@]12CC[C@@]3(C[C@@H]1[C@](C)(O)C(C)(C)C)[C@H]1Cc4ccc(O)c5c4[C@@]3(CCN1CC1CC1)[C@H]2O5 [BUPRENORPHINE]	0	0	0	0	0	0	0	0	0	0	0	0	0	0
CC(NC(C)(C)C)C(=O)c1cccc(Cl)c1 (configuration not stated) [BUPROPION]	0	0	0	0	0	0	0	1	0	1	0	0	0	2
CCNC(=O)[C@@H]1CCCN1C(=O)[C@H](CCCNC(=N)N)NC(=O)[C@H](CC(C)C)NC(=O)[C@@H](COC(C)(C)C)NC(=O)[C@H](Cc1ccc(O)cc1)NC(=O)[C@H](CO)NC(=O)[C@H](Cc1c[nH]c2ccccc12)NC(=O)[C@H](Cc1cnc[nH]1)NC(=O)[C@@H]1CCC(=O)N1 [BUSERELIN]	0	0	0	0	0	0	0	0	0	0	0	0	0	0
O=C1CC2(CCCC2)CC(=O)N1CCCCN1CCN(c2ncccn2)CC1 [BUSPIRONE]	0	0	0	0	0	0	0	0	0	0	0	0	0	0
CS(=O)(=O)OCCCCOS(C)(=O)=O [BUSULFAN]	1	0	0	0	0	0	0	1	1	1	0	0	0	4
CN(Cc1ccc(C(C)(C)C)cc1)Cc1cccc2ccccc12 [BUTENAFINE]	0	0	0	0	0	0	0	0	0	0	0	0	0	0
Clc1ccc(CCC(Cn2ccnc2)Sc2c(Cl)cccc2Cl)cc1 (configuration not stated) [BUTOCONAZOLE]	0	0	0	0	0	0	0	0	0	0	0	0	0	0
Oc1ccc2c(c1)[C@@]13CCCC[C@@]1(O)[C@@H](C2)N(CC1CCC1)CC3 [BUTORPHANOL]	0	0	0	0	0	0	0	0	0	0	0	0	0	0
C=CCN1C[C@H](C(=O)N(CCCN(C)C)C(=O)NCC)C[C@@H]2c3cccc4[nH]cc(c34)C[C@H]21 [CABERGOLINE]	0	0	0	0	0	0	0	0	0	0	0	0	1	1
Cn1c(=O)c2c(ncn2C)n(C)c1=O [CAFFEINE]	0	0	0	0	0	0	0	0	0	0	0	0	0	0
C=C1/C(=C\C=C2/CCC[C@]3(C)[C@@H]([C@H](C)/C=C/[C@@H](O)C4CC4)CC[C@@H]23)C[C@@H](O)C[C@@H]1O [CALCIPOTRIENE]	0	0	0	0	0	0	0	0	0	0	0	0	0	0
C=C1/C(=C\C=C2/CCC[C@]3(C)[C@@H]([C@H](C)CCCC(C)(C)O)CC[C@@H]23)C[C@@H](O)C[C@@H]1O [CALCITRIOL]	0	0	0	0	0	0	0	0	0	0	0	0	0	0
